According to patent publication US11596611B2, “Hepatitis B antiviral agents” (ENANTA PHARMACEUTICALS, INC., priority 2017, dated 2023):

Experiments:
HBV = assay: HepAD38 antiviral assay: reduction of viral product accumulation (virion DNA by qPCR, HBsAg or HBeAg by ELISA); format: cell-based, hepatitis B virus; details: Hepatitis B virus, 120 h; HepAD38 cells, five days after compound addition; 50% reduction of viral product vs no drug controls; read-out: HepAD38 EC50
Outline: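 Readouts were qPCR of lysed virion DNA plus ELISA for HBsAg or HBeAg, samples diluted into linear range. HepAD38 cells, washed free of tetracycline, received compound diluted 1:200 from DMSO for 5 days; 8-day variant refreshed media and compound on days 2 and 5.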

[1] = Compound toxicity by ATPLite (total ATP levels); format: cell-based; details: human, three days after compound addition, 50% reduction of total ATP
Method: Methods: HepAD38 cells are maintained as previously reported (Ladner et al, Antimicrob. Agents Chemother. 1997, […], 1715). Briefly, cells are passaged upon attaining confluency in DMEM/F12 media in the presence of 10% FBS, Penn/Strep, 250 μg/mL G418, and 1 ug/ml tetracycline. Novel compounds are screened by first washing cells three times with PBS to remove tetracycline, and plating in 96 well plates at 35,000 cells/well. Compounds dissolved in DMSO are then diluted 1:200 into wells containing cells. Five days after compound addition, material is harvested for analysis. For an extended 8 days analysis, cells are plated and treated as described above, but media and compound are refreshed on d2 and d5 post initial treatment.
Compound toxicity is evaluated by seeding cells at 15,000 cells/well and treating with compound as described above.

Row | Structure (SMILES) | EC50 (HBV) | CC50 at 3 days ([1]; class symbols) | CC50 at 3 days ([1]; numeric bounds)
1 | C[C@@H](O)[C@@H](O)[C@]1(O)C2CCC1C[C@@H](S(=O)(=O)c1cc(C(=O)Nc3ccc(F)c(F)c3)ccc1Cl)C2 (mixture of isomers) [Example 172] | < 104 nM | > 25000 nM | 
2 | C[C@H](O)[C@@H](O)[C@]1(O)C2CCC1C[C@@H](S(=O)(=O)c1cc(C(=O)Nc3ccc(F)c(F)c3)ccc1Cl)C2 (mixture of isomers) [Example 173] | < 104 nM |  | > 6250 nM
3 | C[C@@H](O)[C@@H](O)[C@]1(O)C2CCC1C[C@@H](S(=O)(=O)c1cc(C(=O)Nc3cc(F)c(F)c(F)c3)ccc1Cl)C2 (racemic) [Example 4] | < 104 nM |  | > 12500 nM
4 | C[C@H](O)[C@@H](O)[C@]1(O)C2CCC1C[C@@H](S(=O)(=O)c1cc(C(=O)Nc3cc(F)c(F)c(F)c3)ccc1Cl)C2 (racemic) [Example 5] | < 104 nM |  | > 3000 nM
5 | O=C(Nc1cc(F)c(F)c(F)c1)c1ccc(Cl)c(S(=O)(=O)[C@H]2CC3CCC(C2)[C@@]3(O)C(O)CO)c1 (mixture of isomers) [Example 10] | < 104 nM |  | > 12500 nM
6 | [N-]=[N+]=NCC(O)[C@]1(O)C2CCC1C[C@@H](S(=O)(=O)c1cc(C(=O)Nc3cc(F)c(F)c(F)c3)ccc1Cl)C2 (mixture of isomers) [Example 11] | < 104 nM |  | > 6250 nM
7 | CC(=O)OC[C@H](O)[C@@H](O)[C@@]1(O)C2CC[C@H]1C[C@H](S(=O)(=O)c1cc(C(=O)Nc3cc(F)c(F)c(F)c3)ccc1Cl)C2 (relative stereo) [Example 68] | < 104 nM | > 25000 nM | 
8 | C[C@@H](O)COC[C@]1(O)C2CCC1C[C@@H](S(=O)(=O)c1cc(C(=O)Nc3cc(F)c(F)c(F)c3)ccc1Cl)C2 (single isomer, unassigned) [Example 130] | < 104 nM |  | > 12500 nM
9 | C[C@@H](O)[C@@H](O)[C@@]1(O)C2CC[C@H]1C[C@H](S(=O)(=O)c1cc(C(=O)Nc3cc(F)c(F)c(F)c3)ccc1Cl)C2 (single isomer, unassigned) [Example 136] | < 104 nM |  | > 12500 nM
10 | C[C@H](O)[C@@H](O)[C@@]1(O)C2CC[C@H]1C[C@H](S(=O)(=O)c1cc(C(=O)Nc3cc(F)c(F)c(F)c3)ccc1Cl)C2 (single isomer, unassigned) [Example 137] | < 104 nM |  | > 6250 nM
11 | C[C@@H](O)[C@H](O)COC[C@]1(O)C2CCC1C[C@@H](S(=O)(=O)c1cc(C(=O)Nc3cc(F)c(F)c(F)c3)ccc1Cl)C2 (single isomer, unassigned) [Example 163] | < 104 nM | > 25000 nM | 
12 | C[C@@H](O)[C@@H](O)[C@]1(O)C2CCC1C[C@@H](S(=O)(=O)c1cc(C(=O)Nc3ccc(F)c(F)c3)ccc1Cl)C2 (single isomer, unassigned) [Example 180] | < 104 nM | > 25000 nM | 
13 | C[C@H](O)[C@@H](O)[C@]1(O)C2CCC1C[C@@H](S(=O)(=O)c1cc(C(=O)Nc3ccc(F)c(F)c3)ccc1Cl)C2 (single isomer, unassigned) [Example 182] | < 104 nM | > 25000 nM | 
14 | C[C@@H](O)[C@H](O)[C@]1(O)C2CCC1C[C@@H](S(=O)(=O)c1cc(C(=O)Nc3ccc(F)c(F)c3)ccc1Cl)C2 (single isomer, unassigned) [Example 183] | < 104 nM | > 25000 nM | 
15 | O=C(Nc1ccc(F)c(F)c1)c1ccc(Cl)c(S(=O)(=O)[C@H]2CC3CCC(C2)[C@]3(O)[C@H](O)c2ccccn2)c1 (single isomer, unassigned) [Example 284b] | < 104 nM | > 25000 nM | 
16 | O=C(Nc1ccc(F)c(F)c1)c1ccc(Cl)c(S(=O)(=O)[C@H]2CC3CCC(C2)[C@]3(O)[C@@H](O)c2cccnc2)c1 (single isomer, unassigned) [Example 285a] | < 104 nM | > 25000 nM | 
17 | O=C(Nc1ccc(F)c(F)c1)c1ccc(Cl)c(S(=O)(=O)[C@H]2CC3CCC(C2)[C@]3(O)[C@H](O)c2cccnc2)c1 (single isomer, unassigned) [Example 285b] | < 104 nM | > 25000 nM | 
18 | CN1CCC[C@@H]1C(=O)NC[C@]1(O)C2CCC1C[C@@H](S(=O)(=O)c1cc(C(=O)Nc3cc(F)c(F)c(F)c3)ccc1Cl)C2 [Example 1] | < 104 nM |  | > 3000 nM
19 | O=C(Nc1cc(F)c(F)c(F)c1)c1ccc(Cl)c(S(=O)(=O)[C@H]2C3CC[C@H]2C[C@](O)(CCCO)C3)c1 [Example 9] | < 104 nM |  | > 6250 nM
20 | C/C=C/C(=O)NC[C@]1(O)C2CCC1C[C@@H](S(=O)(=O)c1cc(C(=O)Nc3cc(F)c(F)c(F)c3)ccc1Cl)C2 [Example 12] | < 104 nM |  | > 3000 nM
21 | C[C@H](O)C(=O)NC[C@]1(O)C2CCC1C[C@@H](S(=O)(=O)c1cc(C(=O)Nc3cc(F)c(F)c(F)c3)ccc1Cl)C2 [Example 13] | < 104 nM |  | > 6250 nM
22 | C[C@@H](O)[C@H](O)COC[C@]1(O)C2CCC1C[C@@H](S(=O)(=O)c1cc(C(=O)Nc3cc(F)c(F)c(F)c3)ccc1Cl)C2 [Example 36] | < 104 nM | > 25000 nM | 

Row | Structure (SMILES) | EC50 (HBV) | CC50 at 3 days ([1]; class symbols) | CC50 at 3 days ([1]; numeric bounds)
23 | C=CCS(=O)(=O)NC[C@]1(O)C2CCC1C[C@@H](S(=O)(=O)c1cc(C(=O)Nc3cc(F)c(F)c(F)c3)ccc1Cl)C2 [Example 39] | < 104 nM |  | > 6250 nM
24 | O=C(NC[C@@]1(O)C2CC[C@H]1C[C@H](S(=O)(=O)c1cc(C(=O)Nc3cc(F)c(F)c(F)c3)ccc1Cl)C2)C1=CCCC1 [Example 41] | < 104 nM |  | > 6250 nM
25 | CC(C)=CCNC(=O)C[C@]1(O)C2CCC1C[C@@H](S(=O)(=O)c1cc(C(=O)Nc3cc(F)c(F)c(F)c3)ccc1Cl)C2 [Example 52] | < 104 nM | > 25000 nM | 
26 | CC=CCNC(=O)C[C@]1(O)C2CCC1C[C@@H](S(=O)(=O)c1cc(C(=O)Nc3cc(F)c(F)c(F)c3)ccc1Cl)C2 [Example 53] | < 104 nM |  | > 6250 nM
27 | CC(O)CNC(=O)C[C@]1(O)C2CCC1C[C@@H](S(=O)(=O)c1cc(C(=O)Nc3cc(F)c(F)c(F)c3)ccc1Cl)C2 (stereo partly shown) [Example 54] | < 104 nM | > 25000 nM | 
28 | CC(CO)NC(=O)C[C@]1(O)C2CCC1C[C@@H](S(=O)(=O)c1cc(C(=O)Nc3cc(F)c(F)c(F)c3)ccc1Cl)C2 (stereo partly shown) [Example 55] | < 104 nM | > 25000 nM | 
29 | C=CCNC(=O)C[C@]1(O)C2CCC1C[C@@H](S(=O)(=O)c1cc(C(=O)Nc3cc(F)c(F)c(F)c3)ccc1Cl)C2 [Example 58] | < 104 nM |  | > 12500 nM
30 | O=C(Nc1cc(F)c(F)c(F)c1)c1ccc(Cl)c(S(=O)(=O)[C@H]2CC3CCC(C2)[C@]3(O)COC(CCO)CCO)c1 [Example 61] | < 104 nM |  | > 6250 nM
31 | O=C(Nc1cc(F)c(F)c(F)c1)c1ccc(Cl)c(S(=O)(=O)[C@H]2CC3CCC(C2)[C@]3(O)COCCO)c1 [Example 62] | < 104 nM |  | > 12500 nM
32 | C=C1CC1C(=O)NC[C@@]1(O)C2CC[C@H]1C[C@H](S(=O)(=O)c1cc(C(=O)Nc3cc(F)c(F)c(F)c3)ccc1Cl)C2 (stereo partly shown) [Example 66] | < 104 nM | 10000 to 25000 nM | 
33 | Cn1cc(C(O)C(O)[C@]2(O)C3CCC2C[C@@H](S(=O)(=O)c2cc(C(=O)Nc4ccc(F)c(F)c4)ccc2Cl)C3)cn1 (stereo partly shown) [Example 322] | < 104 nM |  | 
34 | O=C(Nc1ccc(F)c(F)c1)c1ccc(Cl)c(S(=O)(=O)[C@@H]2CC3C[C@H](O)C(C2)[C@@]3(O)CO)c1 (stereo partly shown) [Example 327] | 100 to 200 nM |  | 
35 | O=C(Nc1ccc(F)c(F)c1)c1ccc(Cl)c(S(=O)(=O)[C@@H]2CC3C[C@@H](O)C(C2)[C@@]3(O)CO)c1 (stereo partly shown) [Example 328] | 100 to 200 nM |  | 
36 | O=C(Nc1ccc(F)c(F)c1)c1ccc(Cl)c(S(=O)(=O)[C@H]2CC3CCC(C2)[C@]3(O)CO[C@@H]2O[C@H](C(=O)O)[C@@H](O)[C@H](O)[C@H]2O)c1 [Example 330] | > 200 nM |  | 
37 | CC[C@H](O)[C@@H](O)[C@]1(O)C2CCC1C[C@@H](S(=O)(=O)c1cc(C(=O)Nc3ccc(F)c(F)c3)ccc1Cl)C2 [Example 334] | < 104 nM |  | 
38 | CC(=O)C(=O)[C@@]1(O)C2CC[C@H]1C[C@H](S(=O)(=O)c1cc(C(=O)Nc3ccc(F)c(F)c3)ccc1Cl)C2 [Example 336] | < 104 nM |  | 
39 | C[C@H](O)[C@@H](O)[C@@]1(O)C2CC(O)C1C[C@H](S(=O)(=O)c1cc(C(=O)Nc3ccc(F)c(F)c3)ccc1Cl)C2 (stereo partly shown) [Example 337] | > 200 nM |  | 
40 | C[C@H](O)[C@@H](O)[C@]1(O)C2CCC1C[C@@H](S(=O)(=O)c1cc(C(=O)Nc3ccc(F)c(F)c3)n(C)c1)C2 [Example 341] | > 200 nM |  | 
41 | CC(C)N(C[C@]1(O)C2CCC1C[C@@H](S(=O)(=O)c1cc(C(=O)Nc3ccc(F)c(F)c3)ccc1Cl)C2)C(C)C [Example 342] | < 104 nM |  | 
42 | O=C1NCC([C@H](O)[C@@H](O)[C@]2(O)C3CCC2C[C@@H](S(=O)(=O)c2cc(C(=O)Nc4ccc(F)c(F)c4)ccc2Cl)C3)O1 (stereo partly shown) [Example 348] | < 104 nM |  | 
43 | O=C(Nc1ccc(F)c(F)c1)c1ccc(Cl)c(S(=O)(=O)[C@@H]2CC3CC[C@@H](C2)[C@@]3(O)C(O)c2ncccc2C(F)F)c1 (stereo partly shown) [Example 349] | 100 to 200 nM |  | 
44 | O=C(Nc1ccc(F)c(F)c1)c1ccc(Cl)c(S(=O)(=O)[C@@H]2CC3CC[C@@H](C2)[C@@]3(O)C(O)c2cccc(C(F)F)n2)c1 (stereo partly shown) [Example 350] | < 104 nM |  | 
